According to patent US9358217B2, “Methods for reducing triglyceride, total cholesterol and low density lipoprotein blood levels” (MediciNova, Inc., priority 2013, dated 2016):

Columns and labels:
Assay type in all cases: in vivo
[1] = system: total cholesterol blood levels; test: Total cholesterol blood levels in human subjects upon MN-001 administration
Experimental: Human subjects were administered various daily amounts of MN-001 and placebo and their total cholesterol blood levels (mg/dl) measured at various time points.

[2] = system: triglyceride blood levels; test: Triglyceride blood levels in human subjects upon MN-001 administration
Experimental: Human subjects were administered various daily amounts of MN-001 and placebo and their triglyceride blood levels (mg/deciliter or dl) measured at various time points. […] As to the “week 14” time point in Table 1-D, it provides triglyceride levels of follow-up patients after MN-001 administration was stopped at 12 weeks.

LDL blood levels = test: Total LDL blood levels in human subjects upon MN-001 administration
Experimental: Human subjects were administered various daily amounts of MN-001 and placebo and their total LDL blood levels (mg/dl) measured at various time points.

blood levels of HDL = test: Blood levels of HDL upon administration of MN-001; conditions: human subjects
[3] = human subjects, various daily amounts, with certain exceptions

In the case of `CCCc1c(SCCCOc2ccc(C(C)=O)c(OCCCC(=O)O)c2CCC)ccc(C(C)=O)c1O` [MN-001], the “mean total cholesterol blood level” value ([1]; Table 2-A Asthma Subjects, 500 mg tid (N = 36), Screening) is reported as 193.5 mg/dL, the “mean total cholesterol blood level” value ([1]; Table 2-A Asthma Subjects, 500 mg tid (N = 36), Week 4) is reported as 183.1 mg/dL and the “mean total cholesterol blood level” value ([1]; Table 2-A Asthma Subjects, 750 mg bid (N = 36), Screening) is reported as 180.5 mg/dL. The “mean total cholesterol blood level” value ([1]; Table 2-A Asthma Subjects, 750 mg bid (N = 36), Week 4) was 181.6 mg/dL, the “mean total cholesterol blood level” value ([1]; Table 2-A Asthma Subjects, 750 mg qd (N = 36), Screening) was 191.5 mg/dL and the “mean total cholesterol blood level” value ([1]; Table 2-A Asthma Subjects, 750 mg qd (N = 36), Week 4) was 180.6 mg/dL. The “mean total cholesterol blood level” value ([1]; Table 2-B Interstitial Cystitis Subjects, 500 mg bid (N = 106), Baseline) was 174.5 mg/dL, the “mean total cholesterol blood level” value ([1]; Table 2-B Interstitial Cystitis Subjects, 500 mg bid (N = 106), Week 4) was 169.8 mg/dL and the “mean total cholesterol blood level” value ([1]; Table 2-B Interstitial Cystitis Subjects, 500 mg bid (N = 106), Week 8) was 168.7 mg/dL. For the same compound, the “mean total cholesterol blood level” value ([1]; Table 2-B Interstitial Cystitis Subjects, 500 mg qd (N = 94), Baseline) was 173.8 mg/dL, the “mean total cholesterol blood level” value ([1]; Table 2-B Interstitial Cystitis Subjects, 500 mg qd (N = 94), Week 4) was 171.5 mg/dL and the “mean total cholesterol blood level” value ([1]; Table 2-B Interstitial Cystitis Subjects, 500 mg qd (N = 94), Week 8) was 170.5 mg/dL. For the same compound, the “mean total cholesterol blood level” value ([1]; Table 2-C Healthy Subjects, 1500 mg/day × 10 days (N = 11), Day 11) was 167.8 mg/dL, the “mean total cholesterol blood level” value ([1]; Table 2-C Healthy Subjects, 1500 mg/day × 10 days (N = 11), Screening) was 176.9 mg/dL and the “mean total cholesterol blood level” value ([1]; Table 2-D Asthma Subjects, 500 mg tid (N = 54), Baseline) was 182.5 mg/dL. For the same compound, the “mean total cholesterol blood level” value ([1]; Table 2-D Asthma Subjects, 500 mg tid (N = 54), Week 4) was 179.3 mg/dL, the “mean total cholesterol blood level” value ([1]; Table 2-D Asthma Subjects, 500 mg tid (N = 54), Week 8) was 176.9 mg/dL and the “mean total cholesterol blood level” value ([1]; Table 2-D Asthma Subjects, 500 mg tid (N = 54), Week 12) was 169.6 mg/dL. For the same compound, the “mean total cholesterol blood level” value ([1]; Table 2-D Asthma Subjects, 500 mg tid (N = 54), Week 14 (follow-up, administration stopped at 12 weeks)) was 182.8 mg/dL, the “mean total cholesterol blood level” value ([1]; Table 2-D Asthma Subjects, 750 mg bid (N = 53), Baseline) was 185.4 mg/dL and the “mean total cholesterol blood level” value ([1]; Table 2-D Asthma Subjects, 750 mg bid (N = 53), Week 4) was 181.6 mg/dL. The “mean total cholesterol blood level” value ([1]; Table 2-D Asthma Subjects, 750 mg bid (N = 53), Week 8) was 187.3 mg/dL, the “mean total cholesterol blood level” value ([1]; Table 2-D Asthma Subjects, 750 mg bid (N = 53), Week 12) was 192.4 mg/dL and the “mean total cholesterol blood level” value ([1]; Table 2-D Asthma Subjects, 750 mg bid (N = 53), Week 14 (follow-up, administration stopped at 12 weeks)) was 182.6 mg/dL. For the same compound, the “effect on mean total cholesterol blood levels compared to control subjects (placebo)” value [1, 3] was “substantial lowering”, the “mean triglyceride blood level” value ([2]; Table 1-A Asthma Subjects, 500 mg tid (N = 36), Screening) was 109.5 mg/dL and the “mean triglyceride blood level” value ([2]; Table 1-A Asthma Subjects, 500 mg tid (N = 36), Week 4) was 91.6 mg/dL. For the same compound, the “mean triglyceride blood level” value ([2]; Table 1-A Asthma Subjects, 750 mg bid (N = 36), Screening) was 125.5 mg/dL, the “mean triglyceride blood level” value ([2]; Table 1-A Asthma Subjects, 750 mg bid (N = 36), Week 4) was 98.5 mg/dL and the “mean triglyceride blood level” value ([2]; Table 1-A Asthma Subjects, 750 mg qd (N = 36), Screening) was 112.2 mg/dL. For the same compound, the “mean triglyceride blood level” value ([2]; Table 1-A Asthma Subjects, 750 mg qd (N = 36), Week 4) was 117.2 mg/dL, the “mean triglyceride blood level” value ([2]; Table 1-B Interstitial Cystitis Subjects, 500 mg bid (N = 106), Baseline) was 135.7 mg/dL and the “mean triglyceride blood level” value ([2]; Table 1-B Interstitial Cystitis Subjects, 500 mg bid (N = 106), Week 4) was 106.7 mg/dL. For the same compound, the “mean triglyceride blood level” value ([2]; Table 1-B Interstitial Cystitis Subjects, 500 mg bid (N = 106), Week 8) was 110.7 mg/dL, the “mean triglyceride blood level” value ([2]; Table 1-B Interstitial Cystitis Subjects, 500 mg qd (N = 94), Baseline) was 136.1 mg/dL and the “mean triglyceride blood level” value ([2]; Table 1-B Interstitial Cystitis Subjects, 500 mg qd (N = 94), Week 4) was 109.5 mg/dL. The “mean triglyceride blood level” value ([2]; Table 1-B Interstitial Cystitis Subjects, 500 mg qd (N = 94), Week 8) was 124.7 mg/dL, the “mean triglyceride blood level” value ([2]; Table 1-C Healthy Subjects, 1500 mg/day × 10 days (N = 11), Day 11) was 87.5 mg/dL and the “mean triglyceride blood level” value ([2]; Table 1-C Healthy Subjects, 1500 mg/day × 10 days (N = 11), Screening) was 145.4 mg/dL. The “mean triglyceride blood level” value ([2]; Table 1-D Asthma Subjects, 500 mg tid (N = 54), Baseline) was 159.4 mg/dL, the “mean triglyceride blood level” value ([2]; Table 1-D Asthma Subjects, 500 mg tid (N = 54), Week 4) was 112.5 mg/dL and the “mean triglyceride blood level” value ([2]; Table 1-D Asthma Subjects, 500 mg tid (N = 54), Week 8) was 132.4 mg/dL. For the same compound, the “mean triglyceride blood level” value ([2]; Table 1-D Asthma Subjects, 500 mg tid (N = 54), Week 12) was 147.7 mg/dL, the “mean triglyceride blood level” value ([2]; Table 1-D Asthma Subjects, 500 mg tid (N = 54), Week 14 (follow-up, administration stopped at 12 weeks)) was 134.1 mg/dL and the “mean triglyceride blood level” value ([2]; Table 1-D Asthma Subjects, 750 mg bid (N = 53), Baseline) was 117.0 mg/dL. For the same compound, the “mean triglyceride blood level” value ([2]; Table 1-D Asthma Subjects, 750 mg bid (N = 53), Week 4) was 94.1 mg/dL, the “mean triglyceride blood level” value ([2]; Table 1-D Asthma Subjects, 750 mg bid (N = 53), Week 8) was 101.4 mg/dL and the “mean triglyceride blood level” value ([2]; Table 1-D Asthma Subjects, 750 mg bid (N = 53), Week 12) was 114.0 mg/dL. The “mean triglyceride blood level” value ([2]; Table 1-D Asthma Subjects, 750 mg bid (N = 53), Week 14 (follow-up, administration stopped at 12 weeks)) was 104.6 mg/dL, the “triglyceride levels during follow-up period compared with a control group” value ([2]; Table 1-D, week 14, after administration was stopped at 12 weeks) was “continued their downward trend” and the “effect on mean triglyceride blood levels compared to control subjects (placebo)” value [2, 3] was “substantial lowering”. The “mean LDL blood level” value (LDL blood levels; Table 3-A Asthma Subjects, 500 mg tid (N = 36), Screening) was 113.8 mg/dL, the “mean LDL blood level” value (LDL blood levels; Table 3-A Asthma Subjects, 500 mg tid (N = 36), Week 4) was 105.4 mg/dL and the “mean LDL blood level” value (LDL blood levels; Table 3-A Asthma Subjects, 750 mg bid (N = 36), Screening) was 100.3 mg/dL. For the same compound, the “mean LDL blood level” value (LDL blood levels; Table 3-A Asthma Subjects, 750 mg bid (N = 36), Week 4) was 104.7 mg/dL, the “mean LDL blood level” value (LDL blood levels; Table 3-A Asthma Subjects, 750 mg qd (N = 36), Screening) was 115.7 mg/dL and the “mean LDL blood level” value (LDL blood levels; Table 3-A Asthma Subjects, 750 mg qd (N = 36), Week 4) was 106.9 mg/dL. The “mean LDL blood level” value (LDL blood levels; Table 3-B Interstitial Cystitis Subjects, 500 mg bid (N = 106), Baseline) was 62.6 mg/dL, the “mean LDL blood level” value (LDL blood levels; Table 3-B Interstitial Cystitis Subjects, 500 mg bid (N = 106), Week 4) was 54.5 mg/dL and the “mean LDL blood level” value (LDL blood levels; Table 3-B Interstitial Cystitis Subjects, 500 mg bid (N = 106), Week 8) was 52.2 mg/dL. For the same compound, the “mean LDL blood level” value (LDL blood levels; Table 3-B Interstitial Cystitis Subjects, 500 mg qd (N = 94), Baseline) was 65.8 mg/dL, the “mean LDL blood level” value (LDL blood levels; Table 3-B Interstitial Cystitis Subjects, 500 mg qd (N = 94), Week 4) was 60.1 mg/dL and the “mean LDL blood level” value (LDL blood levels; Table 3-B Interstitial Cystitis Subjects, 500 mg qd (N = 94), Week 8) was 55.5 mg/dL. The “mean LDL blood level” value (LDL blood levels; Table 3-C Healthy Subjects, 1500 mg/day × 10 days (N = 11), Day 11) was 103.0 mg/dL, the “mean LDL blood level” value (LDL blood levels; Table 3-C Healthy Subjects, 1500 mg/day × 10 days (N = 11), Screening) was 99.1 mg/dL and the “mean LDL blood level” value (LDL blood levels; Table 3-D Asthma Subjects, 500 mg tid (N = 54), Baseline) was 100.2 mg/dL. For the same compound, the “mean LDL blood level” value (LDL blood levels; Table 3-D Asthma Subjects, 500 mg tid (N = 54), Week 4) was 99.5 mg/dL, the “mean LDL blood level” value (LDL blood levels; Table 3-D Asthma Subjects, 500 mg tid (N = 54), Week 8) was 99.1 mg/dL and the “mean LDL blood level” value (LDL blood levels; Table 3-D Asthma Subjects, 500 mg tid (N = 54), Week 12) was 92.5 mg/dL. The “mean LDL blood level” value (LDL blood levels; Table 3-D Asthma Subjects, 500 mg tid (N = 54), Week 14 (follow-up, administration stopped at 12 weeks)) was 102.6 mg/dL, the “mean LDL blood level” value (LDL blood levels; Table 3-D Asthma Subjects, 750 mg bid (N = 53), Baseline) was 106.3 mg/dL and the “mean LDL blood level” value (LDL blood levels; Table 3-D Asthma Subjects, 750 mg bid (N = 53), Week 4) was 102.3 mg/dL. The “mean LDL blood level” value (LDL blood levels; Table 3-D Asthma Subjects, 750 mg bid (N = 53), Week 8) was 106.6 mg/dL, the “mean LDL blood level” value (LDL blood levels; Table 3-D Asthma Subjects, 750 mg bid (N = 53), Week 12) was 110.9 mg/dL and the “mean LDL blood level” value (LDL blood levels; Table 3-D Asthma Subjects, 750 mg bid (N = 53), Week 14 (follow-up, administration stopped at 12 weeks)) was 103.6 mg/dL. For the same compound, the “effect on mean LDL blood levels compared to control subjects (placebo)” value (LDL blood levels; [3]) was “substantial lowering” and the “effect on blood levels of HDL” value (blood levels of HDL) was “not altered substantially, if at all”.
